According to PMC3511469, “Five Different Piscidins from Nile Tilapia, Oreochromis niloticus: Analysis of Their Expressions and Biological Functions” (PLoS ONE, 2012):
Where no end group is shown, it is not given here.

Tested on: S. agalactiae BCRC 10787
Format: cell-based, Streptococcus agalactiae
Conditions: BCRC 10787, pH 7.4
Protocol: (§1) Escherichia coli for transformation was cultured in LB medium at 37°C.
(§2) Peptides were synthesized by GL Biochem (Shanghai, China) using a solid-phase procedure of Fmoc chemistry. Crude peptides were extracted, lyophilized, and purified by reverse-phase high-performance liquid chromatography (HPLC). The molecular masses and purities of the purified peptides were respectively verified by mass spectroscopy and HPLC. Synthetic peptides at >95% purity were reconstituted in phosphate-buffered saline (PBS; pH 7.4) for the experiments. The TP1 sequence was FDWDSVLKGVEGFVRGYF, the TP2 sequence was […], the TP3 sequence was […], the TP4 sequence was […], the TP5 sequence was […], the epinecidin-1 (Epi-1) sequence was […], and the cod pis 1 sequence was […]. C terminals of all synthetic peptides were amidated. The minimal inhibitory concentration (MIC) was measured for each strain of microorganism listed above. The MICs of the peptides were determined by a broth microdilution analysis based on an online method (http://cmdr.ubc.ca/bobh/methods/MODIFIEDMIC.html; Hancock Laboratory Methods. Department of Microbiology and Immunology, University of British Columbia, British Columbia, Canada) without modification.

Row | Substance | MIC
1 | FDWDSVLKGVEGFVRGYF-NH2 [TP1] | >23.57 µg/mL
2 | FIHHIIGGLFSAGKAIHRLIRRRRR-NH2 [TP4] | 0.13 µg/mL
3 | FIHHIIGGLFSVGKHIHSLIHGH-NH2 [TP3] | 0.61 µg/mL
4 | FIHHIIGWISHGVRAIHRAIHG-NH2 [cod Pis 1, reference compound] | 0.31 µg/mL
5 | GECIWDAIFHGAKHFLHRLVNP-NH2 [TP2] | >19.52 µg/mL
6 | GFIFHIIKGLFHAGKMIHGLV-NH2 [Epi-1, epinecidin-1, reference compound] | 0.33 µg/mL
7 | QLQGKQVSGEVVQKVLQELIQSVAKP-NH2 [TP5] | >17.64 µg/mL

Tested on: S. agalactiae 819
Format: cell-based, Streptococcus agalactiae
Conditions: 819, pH 7.4
Protocol: as §1, §2

Row | Substance | MIC
8 | FDWDSVLKGVEGFVRGYF-NH2 [TP1] | >23.57 µg/mL
9 | FIHHIIGGLFSAGKAIHRLIRRRRR-NH2 [TP4] | 2.10 µg/mL
10 | FIHHIIGGLFSVGKHIHSLIHGH-NH2 [TP3] | 9.78 µg/mL
11 | FIHHIIGWISHGVRAIHRAIHG-NH2 [cod Pis 1, reference compound] | 9.89 µg/mL
12 | GECIWDAIFHGAKHFLHRLVNP-NH2 [TP2] | >19.52 µg/mL
13 | GFIFHIIKGLFHAGKMIHGLV-NH2 [Epi-1, epinecidin-1, reference compound] | >21.41 µg/mL
14 | QLQGKQVSGEVVQKVLQELIQSVAKP-NH2 [TP5] | >17.64 µg/mL

Tested on: erythrocytes of tilapia
Format: cell-based
Conditions: not given
Protocol: (§3) The hemolytic activities of Nile tilapia piscidins were determined according to a previous method, [34]. In brief, erythrocytes of tilapia (2×10^7 cells) were washed three times with 0.9% NaCl and incubated with various concentrations of the peptides for 3 h at 37°C. After centrifugation, the absorbance at 545 nm of the suspension was determined. Erythrocytes in PBS (Ablank) and 0.1% Triton X-100 (Atriton) respectively served as the negative and positive controls. The percentage of hemolysis was calculated according to the equation described in a previous publication. The hemolysis assay was performed in triplicate.

Row | Substance | concentration at which the hemolytic effect began
15 | FIHHIIGGLFSAGKAIHRLIRRRRR-NH2 [TP4] | 400 to 800 ng/mL

Tested on: methicillin-resistant Staphylococcus aureus (MRSA)
Conditions: in vitro assay; synthetic peptide; cited from earlier work
Excerpt: Piscidins are cationic AMPs expressed by fish mast cells. […] The piscidin family includes pleurocidin, moronecidin, chrysophsin, dicentracin, epinecidin-1, and myxinidin. Piscidins have a widespread presence in higher teleosts, so far including 11 species in eight families of the Moronidae, Sciaenidae, Sparidae, Latidae, Siganidae, Belontida ...

Row | Substance | MIC
16 | FFHHIFRGIVHVGKTIHRLVTG [piscidin 1, synthetic piscidin 1, literature values] | 3.1 µM

Tested on: human erythrocytes
Format: cell-based
Conditions: not given
Protocol: as §3
Supplementary file pone.0050263.s004.tif: Figure S4 In vitro assays used HeLa (ATCC: CCL-2™), RAW264.7 (ATCC: TIB-71™), and MRC-5 (ATCC: CCL-171™) cells. Tumor cells (HeLa and RAW264.7 cells) and normal cells (MRC-5) were treated with different doses of piscidin peptides (TP1∼5) for 24 h, followed by an MTS assay. Each concentration was repeated in eight wells for three independent experiments. Results are expressed as a percentage of the survival rate of viable cells. Piscidin treatment affected cell viability in a dose-dependent manner. There were significant differences between treatment groups for TP4 and TP3. Data are from three separate experiments. Hemolytic activities of TP1∼5 against human erythrocytes. […]

Row | Substance | concentration at which the hemolytic effect began | hemolytic activity toward human erythrocytes
17 | FIHHIIGGLFSAGKAIHRLIRRRRR-NH2 [TP4] | 400 to 800 ng/mL | –
18 | FIHHIIGGLFSVGKHIHSLIHGH-NH2 [TP3] | – | low hemolytic activity

Tested on: E. faecalis BCRC 10066
Format: cell-based, Enterococcus faecalis
Conditions: BCRC 10066, pH 7.4
Protocol: as §1, §2

Row | Substance | MIC
19 | FDWDSVLKGVEGFVRGYF-NH2 [TP1] | >23.57 µg/mL
20 | FIHHIIGGLFSAGKAIHRLIRRRRR-NH2 [TP4] | 8.39 µg/mL
21 | FIHHIIGGLFSVGKHIHSLIHGH-NH2 [TP3] | 19.55 µg/mL
22 | FIHHIIGWISHGVRAIHRAIHG-NH2 [cod Pis 1, reference compound] | 9.89 µg/mL
23 | GECIWDAIFHGAKHFLHRLVNP-NH2 [TP2] | >19.52 µg/mL
24 | GFIFHIIKGLFHAGKMIHGLV-NH2 [Epi-1, epinecidin-1, reference compound] | >21.41 µg/mL
25 | QLQGKQVSGEVVQKVLQELIQSVAKP-NH2 [TP5] | >17.64 µg/mL

Tested on: A. hydrophila BCRC 13018
Format: cell-based, Aeromonas hydrophila
Conditions: BCRC 13018, pH 7.4
Protocol: as §1, §2

Row | Substance | MIC
26 | FDWDSVLKGVEGFVRGYF-NH2 [TP1] | >23.57 µg/mL
27 | FIHHIIGGLFSAGKAIHRLIRRRRR-NH2 [TP4] | 1.05 µg/mL
28 | FIHHIIGGLFSVGKHIHSLIHGH-NH2 [TP3] | >19.55 µg/mL
29 | FIHHIIGWISHGVRAIHRAIHG-NH2 [cod Pis 1, reference compound] | 19.78 µg/mL
30 | GECIWDAIFHGAKHFLHRLVNP-NH2 [TP2] | >19.52 µg/mL
31 | GFIFHIIKGLFHAGKMIHGLV-NH2 [Epi-1, epinecidin-1, reference compound] | >21.41 µg/mL
32 | QLQGKQVSGEVVQKVLQELIQSVAKP-NH2 [TP5] | >17.64 µg/mL

Tested on: P. aeruginosa ATCC 19660
Format: cell-based, Pseudomonas aeruginosa
Conditions: ATCC 19660, pH 7.4
Protocol: as §1, §2

Row | Substance | MIC
33 | FDWDSVLKGVEGFVRGYF-NH2 [TP1] | >23.57 µg/mL
34 | FIHHIIGGLFSAGKAIHRLIRRRRR-NH2 [TP4] | 0.52 µg/mL
35 | FIHHIIGGLFSVGKHIHSLIHGH-NH2 [TP3] | >19.55 µg/mL
36 | FIHHIIGWISHGVRAIHRAIHG-NH2 [cod Pis 1, reference compound] | >19.78 µg/mL
37 | GECIWDAIFHGAKHFLHRLVNP-NH2 [TP2] | >19.52 µg/mL
38 | GFIFHIIKGLFHAGKMIHGLV-NH2 [Epi-1, epinecidin-1, reference compound] | 10.70 µg/mL
39 | QLQGKQVSGEVVQKVLQELIQSVAKP-NH2 [TP5] | >17.64 µg/mL

Tested on: V. alginolyticus
Format: cell-based, Vibrio alginolyticus
Conditions: pH 7.4
Protocol: as §1, §2

Row | Substance | MIC
40 | FDWDSVLKGVEGFVRGYF-NH2 [TP1] | >23.57 µg/mL
41 | FIHHIIGGLFSAGKAIHRLIRRRRR-NH2 [TP4] | 0.03 µg/mL
42 | FIHHIIGGLFSVGKHIHSLIHGH-NH2 [TP3] | 2.44 µg/mL
43 | FIHHIIGWISHGVRAIHRAIHG-NH2 [cod Pis 1, reference compound] | 1.24 µg/mL
44 | GECIWDAIFHGAKHFLHRLVNP-NH2 [TP2] | >19.52 µg/mL
45 | GFIFHIIKGLFHAGKMIHGLV-NH2 [Epi-1, epinecidin-1, reference compound] | 2.68 µg/mL
46 | QLQGKQVSGEVVQKVLQELIQSVAKP-NH2 [TP5] | >17.64 µg/mL

Tested on: V. vulnificus 204
Format: cell-based, Vibrio vulnificus
Conditions: 204, pH 7.4
Protocol: as §1, §2

Row | Substance | MIC
47 | FDWDSVLKGVEGFVRGYF-NH2 [TP1] | >23.57 µg/mL
48 | FIHHIIGGLFSAGKAIHRLIRRRRR-NH2 [TP4] | 0.03 µg/mL
49 | FIHHIIGGLFSVGKHIHSLIHGH-NH2 [TP3] | 2.44 µg/mL
50 | FIHHIIGWISHGVRAIHRAIHG-NH2 [cod Pis 1, reference compound] | 0.62 µg/mL
51 | GECIWDAIFHGAKHFLHRLVNP-NH2 [TP2] | >19.52 µg/mL
52 | GFIFHIIKGLFHAGKMIHGLV-NH2 [Epi-1, epinecidin-1, reference compound] | 0.67 µg/mL
53 | QLQGKQVSGEVVQKVLQELIQSVAKP-NH2 [TP5] | >17.64 µg/mL
